Measured values published in US7923579B2, “Tricyclic hydroxamate and benzamide derivatives, compositions and methods” (Exonhit Therapeutics S.A., priority 2003, dated 2011).
pIC50: −log10 of the molar value.

Legend:
HDAC = conditions: read-out: HDAC activity is inhibited (reported concentration); depending of the HDAC activity assay used; cited from earlier work
[1] = system: HDAC activity of Hela (human cervical cancer cell line) cells nuclear extract; experiment: HDAC Fluorescent Activity Assay (Biomol Fluor de Lys substrate) with Hela nuclear extract; assay type: biochemical; conditions: read-out: IC50 (dose of compound leading to 50% of HDAC activity), Hela nuclear extract 5 μg, room temperature 0.5 h
Description: Therefore, a fast, non isotopic method has been chosen that relies on a fluorescent HDAC substrate. This assay is a two step enzymatic reaction. The substrate used is a peptidic substrate with a ε-acetylated lysyl moiety followed by a 4-methylcoumarin-7-amide (AMC) moiety at their carboxy terminus. In the first reaction catalysed by HDACs, acetate is released from ε-acetylated lysine residue. In the second reaction, the deacetylated peptides are recognized as substrate by trypsin, which cleaves the deacetylated peptide after the lysine residue. This cleavage releases the AMC and the fluorescence is monitored by a fluorometer.
In order to evaluate the effect of one compound on HDAC activity, the HDAC Fluorescent Activity Assay/Drug Discovery Kit® developed by Biomol and based on the two step enzymatic reaction described above was used with modifications. The substrate of the Biomol assay, called Fluor de Lys™, comprises an acetylated lysine side chain with an AMC moiety.
Then, 5 μg of Hela (human cervical cancer cell line) cells nuclear extract is added in each well. The enzymatic reaction is initiated by the addition of the diluted Fluor de Lys™ substrate and the microplate is incubated at room temperature (e.g. 25° C.) for 0.5 h. In order to stop the reaction and to produce the fluorophore release, 50 μl of the Fluor de Lys™ Developer solution is added in each well and the microplate is incubated at room temperature (e.g. 25° C.) for 0.25 h. Finally, the fluorescence is measured by a fluorimeter (Fluoroskan Ascent FL, Thermolabsystem) at excitation wavelength of 360 nm and emission wavelength of 460 nm.

SMILES | pIC50 [1] | melting point [°C] | pIC50 (HDAC)
CC(/C=C/C(=O)NO)=C\[C@@H](C)C(=O)c1ccc(N(C)C)cc1 [TSA, Trichostatin A] |  |  | 8.59 to 8.85
CC1(C)CCC(C)(C)c2cc(NC(=O)c3ccc(C(=O)NO)cc3)ccc21 [EHT 7706, N-(1,2,3,4-Tetrahydro-1,1,4,4-tetramethylnaphthalen-6-yl)-N′-hydroxyterephthalamide] | 5.93 | 211 | 
CC1(C)CCC(C)(C)c2cc(C(=O)Nc3ccc(C(=O)NO)cc3)ccc21 [EHT 3741, N-(4-(Hydroxycarbamoyl)phenyl)-5,6,7,8-tetrahydro-5,5,8,8-tetramethylnaphthalene-2-carboxamide] | 5.29 |  | 
CC1(C)CCC(C)(C)c2cc(C(=O)Nc3ccc(C(F)(F)C(=O)NO)cc3)ccc21 [EHT 4996, N-(4-((hydroxycarbamoyl)difluoromethyl)phenyl)-5,6,7,8-tetrahydro-5,5,8,8-tetramethylnaphthalene-2-carboxamide] |  | 224.2 | 

Continued, in another order:

pIC50 [1] | melting point [°C] | SMILES | pIC50 (HDAC)
5.39 |  | CC1(C)CCC(C)(C)c2cc(C(F)(F)C(=O)NCc3ccc(C(=O)NO)cc3)ccc21 [EHT 7800, 4-((2,2-Difluoro-2-(1,2,3,4-tetrahydro-1,1,4,4-tetramethylnaphthalen-7-yl)acetamido)methyl)-N-hydroxybenzamide] | 
6.37 |  | CC1(C)CCC(C)(C)c2cc(C(F)(F)C(=O)Nc3ccc(C(=O)NO)cc3)ccc21 [EHT 9299, 4-(2,2-Difluoro-2-(1,2,3,4-tetrahydro-1,1,4,4-tetramethylnaphthalen-7-yl)acetamido)-N-hydroxybenzamide] | 
